Measured values published in patent US20260335495A1, “SYNERGISTIC ACTIVITY OF NOVEL COMPOUNDS AGAINST PLANKTONIC AND BIOFILM CELLS OF CLINICALLY RELEVANT PATHOGENS” (priority 2021, published 2026).

Experiments:
E. coli SK2 = test: MIC and checkerboard (FICI), planktonic cells; assay type: cell-based; conditions: for MIC: alone, 24 h, 37 °C
Experimental: (§1) The MIC was determined by the micro broth dilution method in 96-well plates. […] A 10 μL containing 1×10^5 bacterial cells or 2×10^3 fungal cells were added to each well. The inoculated plates were covered with a lid, sealed with Parafilm, and incubated for 24 h at 37 °C with slight rocking on a tilting platform shaker. After incubation, the optical density at 600 nm (OD 600) of the cultures in each well was measured using an xMark™ Microplate Absorbance Spectrophotometer (Bio-Rad). The MIC was defined as the lowest concentration of antimicrobial compound at which the culture OD600 values was similar to uninoculated control wells. MBCs and MFCs were determined by transferring 100 μL from each well with no apparent growth onto appropriate agar plates, followed by incubation for 24 h at 37 °C.
(§2) The concentrations of antimicrobials used were based on previously determined MIC values. […] Microtiter plates were incubated at 37 °C for 24 h, and the results were analyzed. Each test was performed in duplicate and included a growth control without the addition of any antimicrobials.

[1] = system: Pseudomonas aeruginosa SK1; test: MIC and checkerboard (FICI), planktonic cells; assay type: cell-based; conditions: for MIC: alone, 24 h, 37 °C
Experimental: as §1, §2

Serratia marcescens SK2 = test: MIC and checkerboard (FICI), planktonic cells; assay type: cell-based; conditions: for MIC: alone, 24 h, 37 °C
Experimental: as §1, §2

[2] = system: Staphylococcus epidermidis ON170; test: MIC and checkerboard (FICI), planktonic cells; assay type: cell-based; conditions: for MIC: alone, 24 h, 37 °C
Experimental: as §1, §2

C. albicans ON47 = test: MBC/MFC and FMCI, planktonic cells; assay type: cell-based; conditions: for MBC/MFC: alone
Experimental: as §1, with “The MIC was defined as the lowest concentration of antimicrobial compound at which the culture OD600 values was similar to uninoculated control wells.” left out
as §2

Candida albicans SK4b = test: MBC/MFC and FMCI, planktonic cells; assay type: cell-based; conditions: for MBC/MFC: alone
Experimental: as §1, with “The MIC was defined as the lowest concentration of antimicrobial compound at which the culture OD600 values was similar to uninoculated control wells.” left out
as §2

[3] = system: Pseudomonas aeruginosa SK1; test: MBC/MFC and FMCI, planktonic cells; assay type: cell-based; conditions: for MBC/MFC: alone
Experimental: as §1, with “The MIC was defined as the lowest concentration of antimicrobial compound at which the culture OD600 values was similar to uninoculated control wells.” left out
as §2

[4] = system: Stenotrophomonas maltophilia ON17; test: MBC/MFC and FMCI, planktonic cells; assay type: cell-based; conditions: for MBC/MFC: alone
Experimental: as §1, with “The MIC was defined as the lowest concentration of antimicrobial compound at which the culture OD600 values was similar to uninoculated control wells.” left out
as §2

[5] = system: commonly encountered pathogens; conditions: cited from earlier work
[6] = high concentrations, ALS for CVADs; cited from earlier work
Klebsiella pneumoniae = conditions: 40 mg/mL, locked for 21-25 h, catheter segments; cited from earlier work
E. coli = conditions: 40 mg/mL, locked for 21-25 h, catheter segments; cited from earlier work
S. epidermidis = conditions: 40 mg/mL, locked for 21-25 h, catheter segments; cited from earlier work
P. aeruginosa = conditions: 40 mg/mL, locked for 21-25 h, catheter segments; cited from earlier work
C. albicans = conditions: 40 mg/mL, locked for 21-25 h, catheter segments; cited from earlier work
[7] = 40 mg/mL solution (4% solution) in distilled water; cited from earlier work
[8] = system: clinically relevant pathogens; conditions: 4%; cited from earlier work

## CCO [ET, ethanol]
E. coli SK2; TE + ET in combination
  MIC in combination: 6.25%
E. coli SK2
  MIC: 12.5%
[1]; TE + ET in combination
  MIC in combination: 3.125%
[1]
  MIC: 3.125%
Serratia marcescens SK2; TE + ET in combination
  MIC in combination: 3.125%
Serratia marcescens SK2
  MIC: 6.25%
[2]; TE + ET in combination
  MIC in combination: 0.4%
[2]
  MIC: 3.125%
C. albicans ON47; TE + ET in combination
  MBC/MFC in combination: 3.125%
C. albicans ON47
  MBC/MFC: 6.25%
Candida albicans SK4b; TE + ET in combination
  MBC/MFC in combination: 3.125%
Candida albicans SK4b
  MBC/MFC: 6.25%
[3]; TE + ET in combination
  MBC/MFC in combination: 6.25%
[3]
  MBC/MFC: 12.5%
[4]; TE + ET in combination
  MBC/MFC in combination: 1.6%
[4]
  MBC/MFC: 6.25%
[5]
  concentration required for a 3-log reduction: ≥ 60%
[6]
  adverse events: breaches in catheter integrity, systemic toxicity, and protein precipitation causing intraluminal occlusions

## O=C(O)CN(CCN(CC(=O)O)CC(=O)O)CC(=O)O.[Na].[Na].[Na].[Na] [TE, tetrasodium ethylenediaminetetraacetic acid]
E. coli SK2; TE + CH in combination
  MIC in combination: 0.008%
E. coli SK2; TE + ET in combination
  MIC in combination: 0.015%
E. coli SK2
  MIC: 0.5%
[1]; TE + CH in combination
  MIC in combination: 0.5%
[1]; TE + ET in combination
  MIC in combination: 0.031%
[1]
  MIC: 0.25%
Serratia marcescens SK2; TE + CH in combination
  MIC in combination: 0.063%
Serratia marcescens SK2; TE + ET in combination
  MIC in combination: 0.5%
Serratia marcescens SK2
  MIC: 1%
[2]; TE + CH in combination
  MIC in combination: 0.063%
[2]; TE + ET in combination
  MIC in combination: 0.015%
[2]
  MIC: 0.063%
C. albicans ON47; TE + CH in combination
  MBC/MFC in combination: 0.031%
C. albicans ON47; TE + ET in combination
  MBC/MFC in combination: 0.25%
C. albicans ON47
  MBC/MFC: 2%
Candida albicans SK4b; TE + CH in combination
  MBC/MFC in combination: 0.125%
Candida albicans SK4b; TE + ET in combination
  MBC/MFC in combination: 0.25%
Candida albicans SK4b
  MBC/MFC: 1%
[3]; TE + CH in combination
  MBC/MFC in combination: 0.031%
[3]; TE + ET in combination
  MBC/MFC in combination: 0.031%
[3]
  MBC/MFC: 1%
[4]; TE + CH in combination
  MBC/MFC in combination: 0.031%
[4]; TE + ET in combination
  MBC/MFC in combination: 0.125%
[4]
  MBC/MFC: 1%
Klebsiella pneumoniae
  biofilm colonization: reduced biofilm colonization
E. coli
  biofilm colonization: reduced biofilm colonization
S. epidermidis
  biofilm colonization: reduced biofilm colonization
P. aeruginosa
  biofilm colonization: reduced biofilm colonization
C. albicans
  biofilm colonization: reduced biofilm colonization
[7]
  pH: ~ 11.0
[8]
  biofilm eradication and microbial killing: biofilm eradication and microbial killing ability
